One series concerns the target T1, α4β1 (Homo sapiens, UniProt P05556+P13612, DEL729-798).
T1 construct: purchased R&D Systems 5668-A4
Description: α4β1-VCAM Competition ELISA. The series is classed as binding. The note with it: Table 3-B, Selectivity (α4β1); range classes; read-out: α4β1 ELISA IC50. The gist of the method: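 Recombinant α4β1 (60 nM final) competed with serially diluted peptides (top final 100 μM) for VCAM-1 Fc coated at 400 ng/well, in Tris pH 7.6 with 1 mM MnCl2 or MgCl2, for 2 h at 37 °C. Bound integrin was detected with anti-CD49d 9F10 plus HRP anti-mouse IgG, using TMB read at 450 nm.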
On the technique in general: An ELISA detects its analyte on a solid surface through an enzyme-linked reagent.

Series [1] in a line: Simulated Intestinal Fluid (SIF) Stability Assay. The class given is in vitro ADME, porcine. The note with it: pig, simulated intestinal fluid (SIF) with 1% porcine pancreatin, pH 6.5, Table 3-B. The gist of the method:
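Peptides (22 μM final) incubated at 37 °C in FASSIF (pH 6.5) with 1% porcine pancreatin; aliquots quenched at various times and analyzed by LC-MS/MS against internal standard. Half-life from first-order exponential decay fit of percent remaining.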

For the next series, the target named is α4β7 (Homo sapiens, UniProt P13612+P26010). Briefly: α4β7-MAdCAM Cell Adhesion Assay (RPMI 8866 human cells). The class given is cell-based. More on the design: host or cells: RPMI 8866 human B lymphoblastoid cells. As to conditions: Table 3-B, Potency (α4β7); range classes; read-out: α4β7 cell (Hu) IC50. Summed up: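 Washed RPMI 8866 cells (200,000/well) in DMEM with 0.1% BSA, 10 mM HEPES pH 7, 1 mM MnCl2 adhered to rh MAdCAM-1/Fc-coated wells with serially diluted peptides, 30-45 min at 37 °C. After three washes, bound cells quantified by MTT, A570, cell-free background subtracted for dose response.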
Chain of α4β7 (P13612 34-1032): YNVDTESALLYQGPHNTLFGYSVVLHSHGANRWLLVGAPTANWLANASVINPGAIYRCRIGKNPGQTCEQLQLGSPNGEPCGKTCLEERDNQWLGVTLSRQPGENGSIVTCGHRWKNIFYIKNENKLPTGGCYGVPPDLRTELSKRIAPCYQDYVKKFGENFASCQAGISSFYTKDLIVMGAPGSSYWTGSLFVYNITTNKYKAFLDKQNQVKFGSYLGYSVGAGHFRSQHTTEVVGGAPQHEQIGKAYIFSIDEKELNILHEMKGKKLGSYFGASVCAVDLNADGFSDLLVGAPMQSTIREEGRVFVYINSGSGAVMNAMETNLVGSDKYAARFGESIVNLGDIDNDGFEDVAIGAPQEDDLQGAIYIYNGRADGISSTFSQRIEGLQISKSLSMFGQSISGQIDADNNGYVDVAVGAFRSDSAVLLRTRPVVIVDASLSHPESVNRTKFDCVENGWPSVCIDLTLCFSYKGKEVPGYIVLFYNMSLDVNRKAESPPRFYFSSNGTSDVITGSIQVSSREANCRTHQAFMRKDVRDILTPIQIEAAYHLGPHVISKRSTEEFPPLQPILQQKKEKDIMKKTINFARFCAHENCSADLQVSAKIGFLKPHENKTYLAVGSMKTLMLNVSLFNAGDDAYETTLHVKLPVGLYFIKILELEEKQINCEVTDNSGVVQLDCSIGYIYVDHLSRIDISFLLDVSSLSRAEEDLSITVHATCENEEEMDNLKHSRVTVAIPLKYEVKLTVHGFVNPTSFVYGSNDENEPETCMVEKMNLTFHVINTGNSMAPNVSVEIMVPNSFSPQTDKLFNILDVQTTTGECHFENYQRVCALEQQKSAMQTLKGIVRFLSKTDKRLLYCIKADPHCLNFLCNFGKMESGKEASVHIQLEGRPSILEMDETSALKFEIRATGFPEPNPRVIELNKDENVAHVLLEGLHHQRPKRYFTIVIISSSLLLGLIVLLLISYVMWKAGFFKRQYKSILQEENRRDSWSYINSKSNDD
Chain of α4β7 (P26010 20-798): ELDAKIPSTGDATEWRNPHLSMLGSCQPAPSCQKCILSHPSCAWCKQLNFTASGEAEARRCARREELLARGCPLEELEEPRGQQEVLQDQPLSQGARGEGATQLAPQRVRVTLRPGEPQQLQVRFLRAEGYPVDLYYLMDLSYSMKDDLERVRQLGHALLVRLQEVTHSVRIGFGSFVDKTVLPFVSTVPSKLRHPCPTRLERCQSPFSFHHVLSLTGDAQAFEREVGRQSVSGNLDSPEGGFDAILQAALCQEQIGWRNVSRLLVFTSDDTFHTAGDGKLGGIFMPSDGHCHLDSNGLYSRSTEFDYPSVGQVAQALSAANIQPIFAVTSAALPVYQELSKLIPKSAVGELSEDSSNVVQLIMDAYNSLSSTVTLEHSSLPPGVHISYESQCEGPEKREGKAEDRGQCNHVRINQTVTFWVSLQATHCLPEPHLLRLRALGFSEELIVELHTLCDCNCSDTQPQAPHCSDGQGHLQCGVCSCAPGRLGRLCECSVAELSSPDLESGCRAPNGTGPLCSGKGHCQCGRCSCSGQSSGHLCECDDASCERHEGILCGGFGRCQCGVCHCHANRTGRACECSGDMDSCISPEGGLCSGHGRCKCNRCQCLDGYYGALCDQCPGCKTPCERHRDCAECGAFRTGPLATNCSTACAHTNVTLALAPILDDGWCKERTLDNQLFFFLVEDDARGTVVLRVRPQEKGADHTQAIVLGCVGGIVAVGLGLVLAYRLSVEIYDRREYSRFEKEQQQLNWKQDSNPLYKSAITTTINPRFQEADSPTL

Setting [2] is: > means experiment was stopped at that time and half life was not reached, read-out: Stabilty SIF t1/2.

Read-outs that look alike come from different tables or passages of the source. Numbered stars: 1 amine (or outer) side, 2 acyl side, 3 side chain; on linkers, the order of the positions; unused ones are H or OH. Bridge positions count the residues as written; N and C are the ends. Square brackets hold non-standard residues; d marks the D form. Peptide text beside a SMILES is read from it. I, II: the chains in the order shown. Phe(4-COOH) = N[C@@H](Cc1ccc(C(=O)O)cc1)C(=O)O; Diglycolyl = O=C(COCC(=O)[*:2])[*:1]; NMeR = CN[C@@H](CCCNC(=N)N)C(=O)O; Pen = CC(C)(S)[C@H](N)C(=O)O Some results are limits rather than exact numbers.

Broadly, the IC50 is the midpoint of a concentration-inhibition curve.

T1 sequence (P13612 34-977 limits assumed, stated change not applied): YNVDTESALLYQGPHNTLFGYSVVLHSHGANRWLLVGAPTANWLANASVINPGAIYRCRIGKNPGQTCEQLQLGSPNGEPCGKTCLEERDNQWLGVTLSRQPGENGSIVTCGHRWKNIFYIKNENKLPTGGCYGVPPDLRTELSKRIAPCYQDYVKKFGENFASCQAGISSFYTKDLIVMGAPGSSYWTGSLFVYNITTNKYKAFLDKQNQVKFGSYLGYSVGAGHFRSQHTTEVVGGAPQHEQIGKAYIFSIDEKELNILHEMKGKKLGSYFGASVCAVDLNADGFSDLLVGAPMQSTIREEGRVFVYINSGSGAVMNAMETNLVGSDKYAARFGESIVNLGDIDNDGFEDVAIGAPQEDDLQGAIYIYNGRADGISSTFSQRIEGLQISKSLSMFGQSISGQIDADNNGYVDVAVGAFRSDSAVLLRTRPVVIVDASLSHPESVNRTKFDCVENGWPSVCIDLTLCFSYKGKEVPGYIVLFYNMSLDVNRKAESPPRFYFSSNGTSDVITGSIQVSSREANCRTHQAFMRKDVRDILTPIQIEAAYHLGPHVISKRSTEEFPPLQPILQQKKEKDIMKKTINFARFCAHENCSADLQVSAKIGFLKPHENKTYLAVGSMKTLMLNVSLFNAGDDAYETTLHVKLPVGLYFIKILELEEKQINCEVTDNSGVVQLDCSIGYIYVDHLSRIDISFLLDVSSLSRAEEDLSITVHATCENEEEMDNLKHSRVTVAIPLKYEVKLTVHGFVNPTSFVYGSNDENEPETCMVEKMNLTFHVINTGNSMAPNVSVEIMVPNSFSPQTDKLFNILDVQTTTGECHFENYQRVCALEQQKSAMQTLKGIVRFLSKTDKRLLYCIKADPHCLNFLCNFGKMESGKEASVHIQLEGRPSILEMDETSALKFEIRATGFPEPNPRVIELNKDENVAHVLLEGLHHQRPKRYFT
T1 sequence (P05556 21-728 limits assumed, stated change not applied): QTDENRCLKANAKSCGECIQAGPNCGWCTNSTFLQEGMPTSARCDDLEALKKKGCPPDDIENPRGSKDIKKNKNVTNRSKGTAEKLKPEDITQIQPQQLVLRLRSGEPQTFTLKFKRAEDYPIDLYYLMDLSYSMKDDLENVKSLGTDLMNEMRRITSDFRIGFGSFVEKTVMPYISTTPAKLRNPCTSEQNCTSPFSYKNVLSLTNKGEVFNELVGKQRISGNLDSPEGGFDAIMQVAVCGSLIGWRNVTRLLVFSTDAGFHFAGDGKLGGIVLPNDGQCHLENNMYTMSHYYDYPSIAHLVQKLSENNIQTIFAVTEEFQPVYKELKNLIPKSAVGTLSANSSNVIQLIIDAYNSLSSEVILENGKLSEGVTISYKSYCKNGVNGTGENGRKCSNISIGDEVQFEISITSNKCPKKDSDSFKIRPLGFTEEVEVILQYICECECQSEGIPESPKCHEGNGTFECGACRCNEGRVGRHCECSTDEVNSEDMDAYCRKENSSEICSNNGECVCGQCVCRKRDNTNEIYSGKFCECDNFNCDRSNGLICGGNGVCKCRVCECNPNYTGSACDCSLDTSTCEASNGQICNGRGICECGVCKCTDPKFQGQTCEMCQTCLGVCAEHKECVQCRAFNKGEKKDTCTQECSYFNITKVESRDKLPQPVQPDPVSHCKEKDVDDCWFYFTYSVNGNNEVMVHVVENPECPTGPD

`CC(=O)N[C@@H]1C(=O)N(C)[C@@H](CCCNC(=N)N)C(=O)N[C@@H](CO)C(=O)N[C@@H](CC(=O)O)C(=O)N[C@@H]([C@@H](C)O)C(=O)N[C@@H](CC(C)C)C(=O)N[C@H](C(=O)N[C@@H](Cc2c[nH]c3ccccc23)C(=O)N[C@@H](CCC(=O)O)C(=O)N[C@H](CCCCNC(=O)COCC(=O)NCCCC[C@@H](NC(=O)[C@H](CCC(=O)O)NC(=O)[C@H](Cc2c[nH]c3ccccc23)NC(=O)[C@H]2NC(=O)[C@H](CC(C)C)NC(=O)[C@H]([C@@H](C)O)NC(=O)[C@H](CC(=O)O)NC(=O)[C@H](CO)NC(=O)[C@H](CCCNC(=N)N)N(C)C(=O)[C@@H](NC(C)=O)C(C)(C)SSC2(C)C)C(N)=O)C(N)=O)C(C)(C)SSC1(C)C` [compound 67] (I: Ac-[Pen][NMeR]SDTL[Pen]WE[dK]-NH2 / II: Ac-[Pen][NMeR]SDTL[Pen]WE[dK]-NH2; disulfide I:1-I:7, II:1-II:7; linker I:10-II:10 via Diglycolyl): the figures for the IC50 at α4β1 and on α4β7 were 100 to 500 nM and less than 10 nM, respectively. In addition, the half-life at 22 μM in series [1] (setting [2]) was 2.02 h.

For `CC(=O)N[C@@H]1C(=O)N(C)[C@@H](CCCNC(=N)N)C(=O)N[C@@H](CO)C(=O)N[C@@H](CC(=O)O)C(=O)N[C@@H]([C@@H](C)O)C(=O)N[C@@H](CC(C)C)C(=O)N[C@H](C(=O)N[C@@H](Cc2c[nH]c3ccccc23)C(=O)N[C@H](CCC(=O)O)C(=O)N[C@H](CCCCNC(=O)COCC(=O)NCCCC[C@@H](NC(=O)[C@@H](CCC(=O)O)NC(=O)[C@H](Cc2c[nH]c3ccccc23)NC(=O)[C@H]2NC(=O)[C@H](CC(C)C)NC(=O)[C@H]([C@@H](C)O)NC(=O)[C@H](CC(=O)O)NC(=O)[C@H](CO)NC(=O)[C@H](CCCNC(=N)N)N(C)C(=O)[C@@H](NC(C)=O)C(C)(C)SSC2(C)C)C(N)=O)C(N)=O)C(C)(C)SSC1(C)C` [compound 68] (I: Ac-[Pen][NMeR]SDTL[Pen]W[dE][dK]-NH2 / II: Ac-[Pen][NMeR]SDTL[Pen]W[dE][dK]-NH2; disulfide I:1-I:7, II:1-II:7; linker I:10-II:10 via Diglycolyl), the IC50 lay within 500 to 1000 nM on α4β1 and 25 to 50 nM at α4β7. The half-life at 22 μM in series [1] (setting [2]) is greater than 5 h.

For `CC(=O)N[C@@H]1C(=O)N(C)[C@@H](CCCNC(=N)N)C(=O)N[C@@H](CO)C(=O)N[C@@H](CC(=O)O)C(=O)N[C@@H]([C@@H](C)O)C(=O)N[C@@H](CC(C)C)C(=O)N[C@H](C(=O)N[C@@H](Cc2ccc(C(=O)O)cc2)C(=O)N[C@@H](CCC(=O)O)C(=O)N[C@H](CCCCNC(=O)COCC(=O)NCCCC[C@@H](NC(=O)[C@H](CCC(=O)O)NC(=O)[C@H](Cc2ccc(C(=O)O)cc2)NC(=O)[C@H]2NC(=O)[C@H](CC(C)C)NC(=O)[C@H]([C@@H](C)O)NC(=O)[C@H](CC(=O)O)NC(=O)[C@H](CO)NC(=O)[C@H](CCCNC(=N)N)N(C)C(=O)[C@@H](NC(C)=O)C(C)(C)SSC2(C)C)C(N)=O)C(N)=O)C(C)(C)SSC1(C)C` [compound 129] (I: Ac-[Pen][NMeR]SDTL[Pen][Phe(4-COOH)]E[dK]-NH2 / II: Ac-[Pen][NMeR]SDTL[Pen][Phe(4-COOH)]E[dK]-NH2; disulfide I:1-I:7, II:1-II:7; linker I:10-II:10 via Diglycolyl), the IC50 is 100 to 500 nM on α4β1 and less than 10 nM on α4β7. Moreover, the half-life at 22 μM in series [1] (setting [2]) was greater than 6 h; in series [1] (alone or in parentheses after >360, read-out: Stabilty SIF t1/2, in hr (converted)), 13 h.

(Values after patent US9809623B2, “α4β7 peptide monomer and dimer antagonists” (Protagonist Therapeutics, Inc., priority 2014, dated 2017).)
